Experimental data taken from patent US10242153B2, “Method for determining the risk profile of neoplastic tissue” (NOVAZOI THERANOSTICS, priority 2014, dated 2019).

Assays:
[1] = tested on: MDA-MB-231 breast cancer cells; experiment: Spindle multipolarity and cell death, MDA-MB-231 cells; assay type: cell-based, human; settings: 18 h, 10 μM
Method: To investigate a possible role for centrosome declustering drugs (such as brominated noscapines) to induce high-grade spindle multipolarity leading to cell death during mitosis, MDA-MB-231 breast cancer cells were treated with brominated noscapine. “Scattering” of amplified centrosomes in MDA-MB-231 breast cancer cells upon treatment with brominated noscapine was observed (data not shown). […] Based upon this metaphasic occurrence of cell death, this caspase-mediated cellular demise reflects a “metaphase catastrophe”.

[2] = tested on: MCF-10A near normal breast epithelial cells; experiment: Spindle multipolarity and cell death, MCF-10A cells; assay type: cell-based; settings: same concentration (10 μM)
ZR-75-30 cells [3] = experiment: Boyden chamber invasion assay, ZR-75-30 cells; assay type: cell-based; settings: aphidicolin-treated cells
Method: Trajectories of 10 cells each were captured over 18 h with 108 images per movie (6 frames/h). Data were analyzed using Volocity3.0 software (Improvision, Coventry, UK), whereby average net displacement, displacement rate and velocity measurements were generated for the identified cell tracks with respect to cell centroids. Quantitation of net displacement (Panel A), displacement rate (Panel B) and track velocity (Panel C) for cells with 1 and >2 centrosomes are shown as bar graphs. […] Panel E depicts a bar graph showing quantitation of migration rate of treated and untreated ZR-75-30 cells in a wound healing assay. Panel F depicts a bar graph showing the number of migrated cells in a Boyden chamber assay performed with aphidicolin-treated (APD) and untreated (C) ZR-75-30 cells.
(§1) To assess the migratory capacity of aphidicolin treated cells (˜60% cells harboring extra centrosomes) as compared to control cells, a a classical wound healing assay was performed.

ZR-75-30 cells [4] = experiment: Induction of extra centrosomes and markers in ZR-75-30 cells by aphidicolin; assay type: cell-based
Method: Next, centrosome amplification was evaluated to determine the extent to which it directly and independently impacts the migration potential of a mildly aggressive cell line, ZR-75-30. […] In particular, it was of interest to evaluate whether generation of extra centrosomes (by genetic and pharmacological means) impacts migration and invasion kinetics by experimentally inducing centrosome amplification in these cells by aphidicolin treatment (5 μg/ml for 24 h).
Upon treatment with aphidicolin, centrosome amplification was confirmed by immunofluorescence staining for γ-tubulin (green) (data not shown) and changes in γ-tubulin and centrin levels detectable by Western blot analysis.
(§2) Accordingly, these cells can be pharmacologically manipulated with aphidicolin to generate extra centrosomes. […] Following aphidicolin wash-out, cells were stained using anti-centrin-2 antibodies to verify extra centrosomes by immunofluorescence confocal microscopy. About ˜60% ZR-75-30 cells generated extra centrosomes (6-8 per cell) and were evaluated for their sensitivity to the three drugs, griseofulvin, bromonoscapine, and PJ34, and compared with parent ZR-75-30 cells with normal centrosomes.

ZR-75-30 cells [5] = experiment: Wound healing assay, ZR-75-30 cells; assay type: cell-based; settings: aphidicolin-treated cells; control 40 h
Method: as §1

[6] = tested on: mammary fibrocystic (MCF10A) cells; experiment: Peak subG1 fraction after declustering drugs, non-malignant MCF10A cells; assay type: cell-based; settings: for Peak subG1 percents over 48 h: MCF10A
Method: (§3) To evaluate the impact of putative declustering drugs on cell cycle progression and hypodiploidy (<2N DNA content, which may indicate apoptotic cells), MDA-MB-231 (231), PC3, and HeLa cells were treated with different concentrations of declustering drugs, stained with propidium iodide, labeled with anti-MPM2 antibody, and then assessed by flow cytometry at multiple time points over 48 hr. […] The duration, highest degree, and rapidity of onset of MA varied between drugs, drug concentrations, and cell lines (data not shown). In general, the maximum MA achieved was less pronounced in Nos- and PJ-treated cells. Drug-induced onset of MA was corroborated by substantial increases in cyclin B1 levels in all cell lines. For most cases, prolonged MA (˜24 hr in duration) was followed by a substantial increase in the subG1 population fraction. […] Instances where the subGl fraction was elevated without cleaved caspase-3 may either represent caspase-independent cell death or the presence of hypodiploid cells whose fate is unclear. In general, no consistent associations between the extent, duration, or timing of MA within drugs or across cell lines was found.
(§4) To determine whether the CA-inducing activity of declustering drugs is restricted to cancer cells, two non-malignant cell lines, mammary fibrocystic (MCF10A) cells and adult human dermal fibroblasts (HDFs) were treated with these drugs. […] In comparison, 10 and 25 µM RBN increased peak CA over controls in interphase cells (p<0.001 and p=0.001, respectively), with the lower concentration dramatically augmenting peak CA to 56% of cells versus 15% for the higher dose (FIG. 13, panel B).
Importantly, a therapeutic window exists for several of these agents at the concentrations and in the cell lines tested compared to cancer cells.

MCF10A cells = experiment: Centrosome amplification (CA) by microscopy, MCF10A cells; assay type: cell-based; settings: 25 and 50 μM
Method: (§5) Consequently, CA was assessed in cultures treated with different concentrations of declustering drugs for 6, 12, 18, or 24 h and untreated controls via microscopy. Centrosomes were identified by γ-tubulin and centrin-2 colocalization at discrete foci.
as §4

[7] = tested on: ZR-75-30 cells with amplified centrosomes (ZR-A); experiment: Sub-G1 population in ZR-75-30 cells with amplified centrosomes (ZR-A) versus parent cells; assay type: cell-based; settings: 25 μM, 48 h
Method: Panel A depicts representative DNA histograms comparing cell-cycle kinetics of ZR-75-30 cells and ZR-A cells treated with bromonoscapine (BN, 25 μM), griseofulvin (GF, 25 μM) or PJ34 (25 μM), respectively for 48 h. […] Panel B depicts a quantitative comparison of sub-G1 population in ZR-75-30 and ZR-A cells upon treatment with the three drugs with the same concentration (25 μM) for the same duration (48 h).
as §2

N1E-115 cells [8] = experiment: Vinculin localization in serum-starved N1E-115 cells; assay type: cell-based, murine; settings: serum-starved (SS) cells
Description: Vinculin stabilizes cell-substrate contacts in neuronal cells undergoing neuritogenesis, while activation by actin-binding proteins mobilizes vinculin to focal adhesions. To determine the localization of vinculin in the neurite extensions and the effect of declustering agents on its localization, N1E-115 cells were immunostained cells for vinculin and stained F-actin using rhodamine-phalloidin.

HeLa cells = experiment: Peak subG1 fraction by flow cytometry after declustering drugs, HeLa cells; assay type: cell-based
Method: as §3

N1E-115 cells [9] = experiment: Interphase declustering index (DI) in N1E-115 cells; assay type: cell-based, murine; settings: 6-h treatment, 25 interphase cells, drugs at their respective IC50 concentrations
Method: To evaluate their effect on interphase clustering, N1E-115 cells were treated with these drugs at their respective IC50 concentrations for 0, 3, 6 and 9 h and co-immunostained for γ-tubulin and α-tubulin to evaluate centrosomal spread and microtubule nucleation status, respectively.
Cell cycle phases were further evaluated via lamin A/C immunostaining to distinguish interphase declustering events from prophase centrosomal spread. To quantitate the spread of the interphase centrosomal cluster, a 3D reconstruction of z-stack images of 25 randomly-selected interphase cells from the 6-h treatment group of each drug were generated. By defining an ROI (region of interest) around the interphase centrosomal cluster, the volume of the cluster spread was calculated using Volocity software. Likewise, defining an ROI using the cell periphery provided the cell volume.

[10] = tested on: adult human dermal fibroblasts (HDFs); experiment: Centrosome amplification (CA) by microscopy, HDFs; assay type: cell-based; settings: interphase HDFs only, 25 and 50 μM
Method: as §5, §4

N1E-115 cells [11] = experiment: Ki67 and cleaved caspase-3 immunostaining of serum-starved N1E-115 cells; assay type: cell-based, murine; settings: RedBr-Nos 5 μM, Griseofulvin 10 μM, PJ-34 10 μM
[12] = tested on: adult human dermal fibroblasts (HDFs); experiment: Peak subG1 fraction after declustering drugs, non-malignant HDFs; assay type: cell-based; settings: for Peak subG1 percents over 48 h: HDF
Method: as §3, §4
In HDFs, all the drugs tested increased peak subG1 over controls in a significant fashion (p<0.01 for all) (Table 2). […] Thus, it appears that there may be clinically relevant therapeutic windows for these drugs depending on the type of cancer and the drug dosage.

N1E-115 cells [13] = experiment: Golgi (GM130) and γ-tubulin co-immunostaining of drug-treated N1E-115 cells; assay type: cell-based, murine; settings: data not shown
Description: The Golgi, which is primarily responsible for posttranslational modification and protein sorting, also functions as a microtubule-organizing center (MTOC). It has been hypothesized that supernumerary centrosomes may better organize the Golgi to enhance directional cell migration. To investigate what happens to the Golgi upon declustering drug-induced dispersal of the interphase centrosomal cluster, drug-treated N1E-115 cells were co-immunostained with GM130 (a cis-Golgi matrix protein crucial for maintaining its structure) and γ-tubulin.

MDA-MB-231 (231) cells = experiment: Peak subG1 fraction by flow cytometry (propidium iodide) after declustering drugs, 231 cells; assay type: cell-based, human
Method: as §3

N1E-115 cells [14] = experiment: Neuritogenesis (neurite extension) in serum-starved N1E-115 cells; assay type: cell-based, murine; settings: Mus musculus, N1E-115, 48 h, RedBr-Nos 5 μM, Griseofulvin 10 μM
Method: N1E-115 cells grown in serum-starved (SS) medium were evaluated to determine the extent of neurite formation after 48 h of treatment with RedBr-Nos (5 μM), Griseofulvin (10 μM), PJ-34 (10 μM), Paclitaxel (0.05 μM) treatment or untreated control cells (i.e., serum-starved medium (SS) alone). Panels Ai and Aii depict quantitative bar graphs representing the average length of neurites and percentage of population of cells showing neurite length >10 μm, respectively. A hundred cells were counted in each case. […] Panel B depicts an immunoblot showing CLASP1 expression levels in control (C) and CLASP1 siRNA-transfected N1E-115 cells.
Neuritogenesis is a process in nerve cells involving the extension of polarized, elongated neurites. N1E-115 cells usually extend only one major neurite per cell, which can vary in length from 5 to 500 μm. The growth cones of the neurites serve as primary focal points of motility. The effect of declustering agents on cell motility was evaluated by assessing the length and frequency of neurites formed in a serum-free medium on a laminin-coated surface.

N1E-115 cells [15] = experiment: Drug sensitivity (IC50) of N1E-115 cells; assay type: cell-based, murine; settings: Mus musculus; N1E-115 cells (data not shown)
PC3 cells = experiment: Peak subG1 fraction by flow cytometry after declustering drugs, PC3 cells; assay type: cell-based
Method: as §3

[16] = tested on: BT-549 breast cancer cells; settings: BT-549 cells with amplified centrosomes; cited from earlier work
KIFC1 = KIFC1 (Homo sapiens, UniProt Q9BW19); settings: ATP-competitive and MT-noncompetitive; cited from earlier work
KIFC1, sequence (Q9BW19 whole entry): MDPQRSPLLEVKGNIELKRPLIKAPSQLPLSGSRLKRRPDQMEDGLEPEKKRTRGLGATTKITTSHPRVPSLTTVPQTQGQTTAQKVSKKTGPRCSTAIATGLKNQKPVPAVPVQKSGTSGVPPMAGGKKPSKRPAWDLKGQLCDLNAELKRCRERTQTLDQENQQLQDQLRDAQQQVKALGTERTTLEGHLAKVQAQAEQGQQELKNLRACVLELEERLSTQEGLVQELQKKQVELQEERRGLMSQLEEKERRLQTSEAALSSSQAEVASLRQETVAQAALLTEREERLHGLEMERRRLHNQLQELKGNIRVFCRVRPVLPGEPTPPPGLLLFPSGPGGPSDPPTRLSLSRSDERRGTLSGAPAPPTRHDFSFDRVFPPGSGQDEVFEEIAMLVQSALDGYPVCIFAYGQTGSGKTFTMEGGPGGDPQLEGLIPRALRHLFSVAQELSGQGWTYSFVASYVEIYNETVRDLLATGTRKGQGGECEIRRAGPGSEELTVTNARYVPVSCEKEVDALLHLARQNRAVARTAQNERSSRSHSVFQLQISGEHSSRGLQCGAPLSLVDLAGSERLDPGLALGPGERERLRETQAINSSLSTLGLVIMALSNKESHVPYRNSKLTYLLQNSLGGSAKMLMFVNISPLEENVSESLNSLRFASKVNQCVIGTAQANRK
KIFC1, sequence (P68363 whole entry partner): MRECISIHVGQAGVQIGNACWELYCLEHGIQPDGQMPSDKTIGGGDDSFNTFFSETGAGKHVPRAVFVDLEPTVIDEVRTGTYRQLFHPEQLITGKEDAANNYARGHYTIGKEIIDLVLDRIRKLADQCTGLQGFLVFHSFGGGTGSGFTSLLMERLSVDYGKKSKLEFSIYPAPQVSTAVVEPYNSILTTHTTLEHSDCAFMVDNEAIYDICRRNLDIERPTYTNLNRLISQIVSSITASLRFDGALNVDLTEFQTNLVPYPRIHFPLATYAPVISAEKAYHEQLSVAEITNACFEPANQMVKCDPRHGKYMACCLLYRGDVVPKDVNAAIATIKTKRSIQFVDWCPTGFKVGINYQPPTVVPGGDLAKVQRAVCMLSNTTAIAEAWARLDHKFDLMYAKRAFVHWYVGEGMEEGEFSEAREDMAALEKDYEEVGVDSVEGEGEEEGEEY
KIFC1, sequence (Q9BVA1 whole entry partner): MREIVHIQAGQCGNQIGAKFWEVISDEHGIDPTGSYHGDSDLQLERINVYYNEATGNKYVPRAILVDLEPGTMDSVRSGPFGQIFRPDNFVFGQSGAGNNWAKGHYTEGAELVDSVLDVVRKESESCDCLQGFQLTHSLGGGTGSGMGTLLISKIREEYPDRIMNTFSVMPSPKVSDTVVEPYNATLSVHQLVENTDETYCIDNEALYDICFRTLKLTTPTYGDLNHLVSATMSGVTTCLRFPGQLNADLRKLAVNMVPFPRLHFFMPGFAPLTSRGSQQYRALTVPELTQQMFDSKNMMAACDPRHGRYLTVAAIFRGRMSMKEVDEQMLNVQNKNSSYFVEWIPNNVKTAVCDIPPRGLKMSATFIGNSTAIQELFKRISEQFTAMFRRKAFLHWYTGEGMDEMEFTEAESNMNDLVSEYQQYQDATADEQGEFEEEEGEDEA

brominated noscapine
spindle phenotype and cell death [1]: highly aberrant multipolar spindles that succumb to cell death
spindle multipolarity and cell death [2]: did not exhibit any multipolarity or cell death

C[C@@]1(CO)[C@H](O)CC[C@@]2(C)[C@H]1CC[C@H]1C[C@@H]3C[C@@]12CC[C@]3(O)CO [aphidicolin]
invasion capacity (ZR-75-30 cells [3]): increase in invasion capacity
cells harboring extra centrosomes (ZR-75-30 cells [4]; 5 μg/ml for 24 h): ~60%
extra centrosomes per cell (ZR-75-30 cells [4]; 24 h treatment, after wash-out): 6-8 per cell
vimentin levels (immunoblot) (ZR-75-30 cells [4]; following aphidicolin treatment): significant increase in vimentin levels
time to fill the scratch wound (ZR-75-30 cells [5]): 18 h

COC1=CC(=O)C[C@@H](C)[C@]12Oc1c(Cl)c(OC)cc(OC)c1C2=O [GF, griseofulvin]
susceptibility / toxicity in MCF10A cells versus cancer cell lines ([6]; 25 μM): All cancer cell lines were found to be more susceptible
susceptibility of MCF10A cells versus cancer cell lines ([6]; 50 μM): MCF10A and PC3 cells were equally susceptible
peak subG1 percent compared to controls ([6]; MCF10A cells): did increase peak SubG1
Peak subG1 percents over 48 h ([6]; 25 μM): 22.7%
Peak subG1 percents over 48 h ([6]; 50 μM): 35.1%
peak interphase CA (MCF10A cells; interphase MCF10A cells): 13-16%
CA in mitotic cells versus controls (MCF10A cells; mitotic MCF10A cells): no increase was observed
sub-G1 population versus parent ZR-75-30 cells [7]: much higher sub-G1 population compared to parent ZR-75-30 cells
vinculin localization and focal adhesion points (N1E-115 cells [8]): complete internalization of vinculin and complete loss of focal adhesion points
Peak subG1 percents over 48 h (HeLa cells; 25 μM): 59.5%
Peak subG1 percents over 48 h (HeLa cells; 50 μM): 79.0%
maximum (peak) subG1 fraction relative to control (HeLa cells; 50 μM): 4.3 × control
interphase declustering index (DI): ratio of average cluster volume to average cell volume (N1E-115 cells [9]): 0.28
peak CA [10]: 14-15%
Ki67-positive cells (N1E-115 cells [11]): high proportion of Ki67-positive cells
Peak subG1 percents over 48 h ([12]; 25 μM): 32.9%
Peak subG1 percents over 48 h ([12]; 50 μM): 38.3%
death in cancer cell lines vs. HDFs ([12]; both concentrations): more death in 231 and HeLa cells
fragmentation of the interphase Golgi complex (N1E-115 cells [13]): most robust effect
Peak subG1 percents over 48 h (MDA-MB-231 (231) cells; 25 μM): 62.0%
maximum (peak) subG1 fraction relative to control (MDA-MB-231 (231) cells; 25 μM): 6.4 × control
Peak subG1 percents over 48 h (MDA-MB-231 (231) cells; 50 μM): 60.0%
inhibition at 10 µM (N1E-115 cells [14]): 70 to 80%
IC50 (N1E-115 cells [15]): 25 µM
Peak subG1 percents over 48 h (PC3 cells; 25 μM): 33.7%
Peak subG1 percents over 48 h (PC3 cells; 50 μM): 39.5%
maximum (peak) subG1 fraction relative to control (PC3 cells; 50 μM): 16.3 × control

CCCc1cc(C(=O)N[C@H](Cc2ccc(-c3cccc(OC(F)(F)F)c3)nc2)C(=O)N[C@@H]2CCNC2)sc1C [AZ82]
centrosome declustering [16]: causes centrosome declustering
Ki (KIFC1): 0.043 µM
